The source of these data is patent EP4624470A1, “YOHIMBINE DERIVATIVE, AND PREPARATION METHOD THEREFOR AND PHARMACEUTICAL COMPOSITION AND USE THEREOF” (Shanghai Institute of Materia Medica, Chinese Academy of …, priority 2022, dated 2024).

The target of one series is T1, α2A-AR (Homo sapiens, UniProt P08913).
T1 construct: expressed in transfected cells; stably expressing α2A-AR/Gα16
T1 sequence (P08913 1-465): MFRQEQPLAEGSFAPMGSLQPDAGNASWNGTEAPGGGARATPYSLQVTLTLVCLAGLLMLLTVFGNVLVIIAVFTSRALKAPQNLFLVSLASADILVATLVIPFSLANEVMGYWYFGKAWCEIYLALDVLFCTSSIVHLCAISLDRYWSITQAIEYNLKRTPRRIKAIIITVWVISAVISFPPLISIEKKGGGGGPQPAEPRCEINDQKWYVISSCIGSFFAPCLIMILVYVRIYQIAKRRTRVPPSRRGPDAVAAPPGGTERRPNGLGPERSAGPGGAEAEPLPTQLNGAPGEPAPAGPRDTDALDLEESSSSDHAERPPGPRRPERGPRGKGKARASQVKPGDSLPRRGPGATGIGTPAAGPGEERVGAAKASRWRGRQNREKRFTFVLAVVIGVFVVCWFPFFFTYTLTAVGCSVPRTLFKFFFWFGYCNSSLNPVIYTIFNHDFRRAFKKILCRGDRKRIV
The experiment in a line: α2A-AR antagonist assay (calcium flux, Fluo-4, FlexStation II). Type of series: cell-based. The note with it: antagonistic activity against agonist UK14304 in cells stably expressing α2A-AR/Ga16. An excerpt:
By establishing a cell line co-transfected with the target receptor and Ga16, the receptor can be activated to cause the activation of Gα16 protein, which in turn activates phospholipase C (PLC) to produce IP3 and DAG. IP3 can bind to the IP3 receptors on the endoplasmic reticulum and mitochondria in the cell, thereby causing the release of intracellular calcium. Therefore, measuring the changes in intracellular calcium can be used as a method to detect the activation state of the target receptor. Fluo-4/AM is a calcium fluorescent probe indicator used to measure calcium ions. As a non-polar lipid-soluble compound, after entering the cell, the AM group dissociates under the action of cell lipases and releases Fluo-4; since Fluo-4 is a polar molecule that is not easy to pass through the lipid bilayer membrane, it can keep in the cell for a long time. Finally, the level of Ga protein activation can be reflected by measuring the excited fluorescence intensity.
Before the test, the test compound was dissolved in DMSO to prepare a stock solution, which was diluted with culture medium to the required concentration when used.

The subject of another series is type 2 diabetic mice. Description: Blood sugar lowering effect in high-sugar and high-fat diet-induced type 2 diabetes mouse model. Type of series: in vivo, C57BL\6J mice. An excerpt: A high-sugar and high-fat diet-induced type 2 diabetes mouse model was used in this experiment, and the following tests were mainly conducted: • 1) Effect of single intraperitoneal administration on basal blood glucose, glucose tolerance and insulin sensitivity in diabetic mice. • 2) Effect of single gavage administration on glucose tolerance and insulin sensitivity in diabetic mice. • 3) Effect of continuous chronic intraperitoneal administration on basal blood glucose in diabetic mice.
C57BL\6J mice were fed with a high-sugar and high-fat diet for 3 consecutive months. The test experiment was conducted after the average body weight of the mice stabilized at more than 50g and the average basal blood sugar value stabilized at more than 12mmol/L.
Blood glucose level was mainly measured by measuring tail vein blood using a blood glucose meter. For the test of basal blood glucose effect, the mice were on a normal diet. The basal blood glucose value before administration was first measured, and then a single intraperitoneal injection or a single gavage of the yohimbine derivative C19 (10 mg/kg mouse body weight) was given, and the venous blood glucose level was measured 15, 30, 60, 90, and 120 minutes after administration. The mouse glucose tolerance test was performed after the mouse has eaten for 16 hours overnight. 30 minutes after a single intraperitoneal injection or a single gavage of the yohimbine derivative C19 (10 mg/kg mouse body weight), glucose (1.5 g/kg) was injected intraperitoneally, and the venous blood glucose level was measured 15, 30, 60, 90, and 120 minutes later. Mouse insulin sensitivity was tested after the mouse has eaten for 6 hours. 30 minutes after a single intraperitoneal injection or single gavage of yohimbine derivative C19 (10 mg/kg mouse body weight), insulin (1 UI/kg) was injected intraperitoneally, and the venous blood glucose level was measured 15, 30, 60, 90, and 120 minutes later. For the effect of chronic administration on blood glucose levels, diabetic mice were intraperitoneally injected with yohimbine derivative C19 (10 mg/kg) every day for 12 consecutive days, and the basal blood glucose level of mice under free diet was measured every day before drug injection. The control group was injected with normal saline or gavage.

Series [1] in a line: Tissue distribution test in mice. Type of series: in vivo. Conditions: gavage 10 mg/kg. As to the method:
Mice were fasted for more than 12 h and had free access to water. Table 3 Experimental Scheme for tissue distribution of Compound C27 in mice
Mice were fasted for more than 12 h and had free access to water.
• (1) Tissue distribution test in mice: The animals in each group were anesthetized and killed 2 h after administration. The brain, pancreas, heart, liver, and kidney tissues were collected by dissection, washed with physiological saline, and stored in a -20 °C refrigerator for testing. At the same time, 0.3 mL of whole blood was collected and placed in an EDTA-K2 anticoagulant tube. The blood was separated by centrifugation at 11,000 rpm for 5 min and stored in a -20 °C refrigerator for testing.
The concentration of unchanged drug in plasma and tissues was determined.
(2) Tissue distribution test of compound C27 in mice: At corresponding time points (0.25, 2 and 8 h) after gavage administration, mice were bled to death through the abdominal aorta. Brain, heart, liver, lung, pancreas and kidney tissues were immediately collected by dissection, and part of the plasma was collected. The operation was carried out in an ice water bath.
Centrifugation conditions: 11000 rpm for 5 min to separate plasma (about 200 µL).

Setting [2] is: relative ratio of tissue distribution concentration to blood concentration.

What is called IC50 is the midpoint of a concentration-inhibition curve. Turning to `N#Cc1ccc(Cc2noc([C@@H]3[C@H]4C[C@H]5c6[nH]c7ccccc7c6CCN5C[C@@H]4CC[C@@H]3O)n2)cc1` [Compound C19], the concentration for half-maximal inhibition (IC50) on α2A-AR lay in the range of 0.3 to 0.5 µM. Moreover, the “basal blood glucose level” value with type 2 diabetic mice (chronic intraperitoneal injection, 10 mg/kg once a day, 12 consecutive days (Figure 8)) is reported as “stably maintain the basal blood sugar level of diabetic mice at a state closer to the normal level”; in the series with type 2 diabetic mice (single intraperitoneal injection, 10 mg/kg (Figure 3)) it was “significantly reduce the high blood sugar level of diabetic mice”. Also, the glucose tolerance entry in the series on type 2 diabetic mice (single gavage administration, 10 mg/kg (Figure 6)) is given as “improve glucose tolerance”; in the series on type 2 diabetic mice (single intraperitoneal injection, 10 mg/kg (Figure 4)), “improve glucose tolerance”. Further, the insulin sensitivity entry in the series on type 2 diabetic mice (single gavage administration, 10 mg/kg (Figure 7)) is “increase insulin sensitivity”; with type 2 diabetic mice (single intraperitoneal injection, 10 mg/kg (Figure 5)), “increase insulin sensitivity”. For the same compound, the pancreatic distribution entry in series [1] is “good pancreatic distribution”. In series [1] (setting [2]), the “brain tissue distribution compared with yohimbine” value is “lower brain tissue distribution than yohimbine”. In series [1] (setting [2]), the “brain tissue distribution, times lower than that of yohimbine” value was “about forty times lower”.
